{"source": "patent US20150374673A1", "about": "“Combination Therapy for the Treatment of Nosocomial Pneumonia” (priority 2013, published 2015)", "key": {"[1]": {"tested_on": "S. aureus", "assay": "MIC, CLSI broth microdilution in CAMHB with 0-10% pulmonary surfactant (avibactam fixed at 4 μg/mL in combination)", "type": "cell-based, Staphylococcus aureus", "protocol": "The bacterial strains used in this testing were part of the microbiological culture collection housed at AstraZeneca R&D Boston (AstraZeneca Research Collection, designated ARC). The panel of bacterial isolates used for this testing was comprised of five CLSI QC reference strains and the remainder were either recent clinical isolates expressing β-lactamases or isolates from the primary bacterial screening panels.\nMIC values were determined using the CLSI broth microdilution methodology with slight variation. Stock compound mother plates were prepared and used to spot 2 μL aliquots of serial 2-fold drug dilutions to columns 1-11 of 96-well daughter plates using a Perkin-Elmer MiniTrak™ MultiPosition dispenser. […] An inoculum volume of 100 μL (5×10E^5 CFU/mL) in CAMHB containing 0, 1, 2.5, 5, or 10% pulmonary surfactant was added using a multichannel Finnpipette® to each well of the 96-well plate.\nThe minimum inhibitory concentration (MIC) values against each organism/drug combination were determined using broth microdilution methodology according to CLSI guidelines. The recommended reference bacterial strains for each test group and reference compounds were incorporated into each test. For Gram-negatives, the reference bacterial strains were Escherichia coli ATCC 25922, E. coli ATCC 35218, Klebsiella pneumoniae ATCC 700603, and Pseudomonas aeruginosa ATCC 27853. Staphylococcus aureus ATCC 29213 was the reference bacterial strain for the Gram-positives.\nMIC values for individual isolates were read visually. The MICs for each compound or combination in pulmonary surfactant was compared to the compound or combination tested in CAMHB alone."}, "[2]": {"assay": "Serum and epithelial lining fluid (ELF) pharmacokinetics of ceftazidime-avibactam human simulated regimen in infected and uninfected mice", "settings": "for fT > MIC: human simulated CAZ-AVI 2000-500 mg q8h 2 h infusion", "protocol": "Pathogen-free, female ICR mice weighing approximately 25 g were acquired from Harlan Sprague Dawley, Inc. (Indianapolis, Ind.) and utilized throughout these experiments. Animals were maintained and used in accordance to National Research Council recommendations, and provided food and water ad libitum. Mice were rendered neutropenic with 100 and 250 mg/kg intraperitoneal injections of cyclophosphamide (Cytoxan®; Bristol-Myers Squibb, Princeton, N.J.) given one and four days prior to inoculation, respectively. Three days prior to inoculation, mice were also given a single 5 mg/kg intraperitoneal injection of uranyl nitrate. This produces a predictable degree of renal impairment to slow drug clearance. Two hours prior to the initiation of antimicrobial therapy, mice were lightly anesthetized using isofluorane (2.5% v/v in 100% oxygen carrier) until the respiratory rate decreased upon visual inspection. Pneumonia was induced by the instillation of 0.05 mL of a 10^7 CFU inoculum of the test isolate suspended in 3% mucin in normal saline. While the mouse is anesthetized, the inoculum is delivered into the animal's oral cavity, blocking the nares and holding the mouse in a vertical position. Aspiration of bacteria into the lungs occurred as the animals began to spontaneously respire.\nIn these studies, we utilized the previously determined dosing regimen described above. Confirmatory serum pharmacokinetic studies were undertaken in infected mice. For these studies, infected neutropenic mice were dosed with the above calculated regimen and groups of six mice ? were euthanized at multiple time points throughout a 24 h period to confirm target exposures blood was collected via cardiac puncture and the serum samples were stored at −80° C. until analysis. Pharmacokinetic studies were undertaken to describe the epithelial lining fluid concentrations in infected mice. For these studies, infected neutropenic mice were dosed with the above calculated regimen and groups of six mice were euthanized at multiple time points throughout the third dosing period (i.e. 16-24 h). Once euthanized, serum and BAL samples were collected as described above. Serum and BAL samples were stored at −80° C. until analysis."}, "[3]": {"tested_on": "P. aeruginosa", "assay": "Neutropenic thigh infection model (CD-1 mice), exposure response of ceftazidime q2h and avibactam", "type": "in vivo, Pseudomonas aeruginosa", "settings": "ceftazidime monotherapy q2h", "protocol": "CD-1 neutropenic mice were infected with appr. 10^6 cfu β-lactamase-producing P. aeruginosa strains in the thigh.\nOutbred female CD-1 mice (Charles River, Netherlands), 4 to 5 weeks old, weighing 20 to 25 g were used in the experiments. Granulocytopenia was induced by two doses of cyclophosphamide s.c.: one at four days (150 mg/kg) and the other at one day (100 mg/kg) before the infection experiment.\nThe neutropenic mice were infected with 2 P. aeruginosa strains per animal, one in the left and one in the right thigh. 0.05 mL of bacterial suspension consisting of approximately 10^5-10^6 bacteria was inoculated intramuscularly. […] All dosing regimens were performed in at least two animals. At t=0 h, 2 mice were humanely sacrificed to determine the initial inoculum just before treatment. All other animals were sacrificed at t=24 h unless the welfare of the animals indicated earlier termination was necessary, following animal welfare regulations. Thighs were taken and moved to a pre-cooled 10-mL plastic tube (Transport Tube, Omnilabo, NL) ? containing 2 mL phosphate buffered saline (PBS; NaCl 8.00 g/L, Na2HPO42H2 1.44 g/L, KH2PO4 0.26 g/L, pH 7.2-7.4). Subsequently thighs were ground using an Ultra-Turrax (IKA Labortechnik, Germany). A tenfold dilution series was prepared and 3×10 μL plated (Chromagar, Biomerieux, NL) per dilution. The following day, colonies were counted and the number of cfu per thigh calculated. The drug effect was then determined as the difference between the log10[cfu/thigh] values at t=24 h and t=0 h (mean value of 2 mice) expressed as “dcfu”.\nThe amount of avibactam administered varied in frequency and dose. […] The drug effect was determined as the difference between the log10 [cfu/thigh] values at t=24 h and t=0 h (mean value of 2 mice) expressed as dcfu. Free drug concentrations were used in all calculations. […] Oral presentation at the ? 52nd Interscience Conference on Antimicrobial Agents and Chemotherapy, San Francisco, Calif. Abstract #A-1760)."}, "[4]": {"settings": "female, ICR, mouse, epithelial lining fluid (ELF) vs serum, ELF point Penetration Ratio, infected mice, ELF vs serum, third dosing interval"}, "[5]": {"settings": "female, ICR, mouse, epithelial lining fluid (ELF) vs serum, ELF point Penetration Ratio, uninfected mice, ELF vs serum, third dosing interval"}}}
{"smiles": "CC(C)(O/N=C(\\C(=O)N[C@@H]1C(=O)N2C(C(=O)[O-])=C(C[n+]3ccccc3)CS[C@H]12)c1csc(N)n1)C(=O)O", "note": "[ceftazidime, (6R,7R)-7-[[(2Z)-2-(2-amino-1,3-thiazol-4-yl)-2-(1-hydroxy-2-methyl-1-oxopropan-2-yl)oxyiminoacetyl]amino]-8-oxo-3-(pyridin-1-ium-1-ylmethyl)-5-thia-1-azabicyclo[4.2.0]oct-2-ene-2-carboxylate pentahydrate]", "values": [{"measurement": "MIC", "setting": "[1]; S. aureus ARC12 (CLSI QC strain, ATCC 29213), surfactant 0%", "value": 8, "unit": "µg/mL"}, {"measurement": "MIC", "setting": "[1]; S. aureus ARC12 (CLSI QC strain, ATCC 29213), surfactant 1%", "value": 16, "unit": "µg/mL"}, {"measurement": "MIC", "setting": "[1]; S. aureus ARC12 (CLSI QC strain, ATCC 29213), surfactant 2.5%", "value": 16, "unit": "µg/mL"}, {"measurement": "MIC", "setting": "[1]; S. aureus ARC12 (CLSI QC strain, ATCC 29213), surfactant 5%", "value": 8, "unit": "µg/mL"}, {"measurement": "MIC", "setting": "[1]; S. aureus ARC12 (CLSI QC strain, ATCC 29213), surfactant 10%", "value": 8, "unit": "µg/mL"}, {"measurement": "MIC", "setting": "[1]; S. aureus ARC516 (MRSA, quinolone-resistant), surfactant 0%", "value": ">64", "unit": "µg/mL"}, {"measurement": "MIC", "setting": "[1]; S. aureus ARC516 (MRSA, quinolone-resistant), surfactant 1%", "value": ">64", "unit": "µg/mL"}, {"measurement": "MIC", "setting": "[1]; S. aureus ARC516 (MRSA, quinolone-resistant), surfactant 2.5%", "value": ">64", "unit": "µg/mL"}, {"measurement": "MIC", "setting": "[1]; S. aureus ARC516 (MRSA, quinolone-resistant), surfactant 5%", "value": ">64", "unit": "µg/mL"}, {"measurement": "MIC", "setting": "[1]; S. aureus ARC516 (MRSA, quinolone-resistant), surfactant 10%", "value": ">64", "unit": "µg/mL"}, {"measurement": "fT > MIC", "setting": "[2]; MIC 4, ELF, infected mice", "value": 100, "unit": "%"}, {"measurement": "fT > MIC", "setting": "[2]; MIC 4, ELF, uninfected mice", "value": 100, "unit": "%"}, {"measurement": "fT > MIC", "setting": "[2]; MIC 4, Serum, infected mice", "value": 100, "unit": "%"}, {"measurement": "fT > MIC", "setting": "[2]; MIC 4, Serum, uninfected mice", "value": 100, "unit": "%"}, {"measurement": "fT > MIC", "setting": "[2]; MIC 32, ELF, infected mice", "value": 0, "unit": "%"}, {"measurement": "fT > MIC", "setting": "[2]; MIC 32, ELF, uninfected mice", "value": 34, "unit": "%"}, {"measurement": "fT > MIC", "setting": "[2]; MIC 32, Serum, infected mice", "value": 50, "unit": "%"}, {"measurement": "fT > MIC", "setting": "[2]; MIC 32, Serum, uninfected mice", "value": 62, "unit": "%"}, {"measurement": "Kp at 16 h", "setting": "[2]; [4]", "value": 2.13}, {"measurement": "Kp at 18.5 h", "setting": "[2]; [4]", "value": 0.8}, {"measurement": "Kp at 22 h", "setting": "[2]; female, ICR, mouse, epithelial lining fluid (ELF) vs serum, ELF point Penetration Ratio, infected mice, 22 h, ELF vs serum, third dosing interval", "value": 0.3}, {"measurement": "Kp at 24 h", "setting": "[2]; [4]", "value": 0.95}, {"measurement": "Kp at 16 h", "setting": "[2]; [5]", "value": 1.02}, {"measurement": "Kp at 18.5 h", "setting": "[2]; [5]", "value": 0.8}, {"measurement": "Kp at 24 h", "setting": "[2]; [5]", "value": 0.64}, {"measurement": "static % fT > MIC (CAZ)", "setting": "[3]; isolate no. 1", "value": "no effect"}, {"measurement": "static % fT > MIC (CAZ)", "setting": "[3]; isolate no. 3", "value": 0, "unit": "%"}, {"measurement": "static % fT > MIC (CAZ)", "setting": "[3]; isolate no. 5", "value": 3, "unit": "%"}, {"measurement": "static % fT > MIC (CAZ)", "setting": "[3]; isolate no. 7", "value": 7.2, "unit": "%"}, {"measurement": "static % fT > MIC (CAZ)", "setting": "[3]; isolate no. 11", "value": "no effect"}, {"measurement": "static % fT > MIC (CAZ)", "setting": "[3]; isolate no. 18", "value": 9, "unit": "%"}, {"measurement": "static % fT > MIC (CAZ)", "setting": "[3]; isolate no. 19", "value": 38, "unit": "%"}]}
